US20100275328A1, “METHOD OF SELECTIVELY PRODUCING MALE OR FEMALE STERILE PLANTS” (Syngenta Limited, priority 2003, published 2010)

Assays:
[1] = test system: Nicotiana tabacum var. Samsun; test: Conditional female sterility of transgenic tobacco expressing mutant D-amino acid oxidase in female floral tissue; format: in vivo; settings: for seed production after treatment / pollen production after treatment: transgenic tobacco; for seed production after treatment: female floral promoter-DAMOX, foliar spray, root drench or bud application; for pollen production after treatment: same treatment conditions
Description: Tobacco leaf discs are transformed with the recombinant binary vectors using methods similar to those described in Horsch et al (1985) Science, 227, 1229-1231. Many variations of the method may be used. The binary vector can be transformed into, for example, Agrobacterium tumefaciens strain LBA 4404 using the freeze thaw method of transformation. Tobacco transformation and whole plant regeneration is performed using Nicotiana tabacum var. Samsun according to protocols described by Draper et al (Plant Genetic Transformation, Blackwell Sci. Pub. 1989). Transformation events are selected on MS-media containing kanamycin or other suitable antibiotic. The presence of integrated transgenes is confirmed by PCR. Plants are regenerated and allowed to reach maturity and selfed on to produce seed. Northern and/or Western analysis is used to confirm tissue-specific expression of the D-amino acid oxidase genes. The selected plants are self-fertile but have the condition of conditional female sterility. Seeds of the T1 generation are planted out. Once plantlets have grown to a sufficient size they are tested by PCR for the presence of transgene. PCR positive plants are transferred to the greenhouse. These plants are fully fertile in the absence of exogenously applied proherbicide. A subset of these (putatively) conditionally sterile plants are treated with D-phosphinothricin or D-aspartate or D-glutamate in various amounts and at varying growth stages. Such treatments are carried out on the T1 plants confirmed as PCR positive for the D-amino acid oxidase gene, or, equally, such treatments are carried out directly on plants of the To generation (which are vegetatively cloned so that untreated clones of each event may be set aside for seed production). […] For example these amino acids are pure D enantiomers or, alternatively, are DL racemates. For example, they are applied as a foliar spray, prior to or during the early stages of flower formation, at rates usually between 0.25 and 20 kg/ha. Amino acids which may crystallise out of solution on the leaves following foliar application may be redissolved and remobilised for leaf uptake by further applications of water as a spray mist. Amino acids are, for example, also applied as a root drench and optionally, further applied as ˜50 ul of a 10-200 mM solution flooded directly into the buds of emerging florets. Pollen from the treated plants is collected and viability is tested. […] Controls include both transgenic and non-transgenic plants and are grown under identical conditions and under an identical regime of physical treatments except that treatment solutions are either water or an equivalent concentration of pure L-amino acid.
In one variant of the method, the amino acid applied is racemic DL phosphinothricin. In this case, the DNA construct used for transformation comprises, in addition to the DNA sequence encoding a D-amino acid oxidase under operable expression control of a tissue specific female floral promoter region such as ‘stig 1’, also a DNA sequence (EMBL: A02774) a […] under operable control of a promoter region such as the region 5′ of the translational start of the plastocyanin gene of the Pisum sativum plastocyanin gene (EMBL accession number X16082). For example, the construct is the same as depicted in FIG. 1.
The plastocyanin promoter region provides for preferential expression in the green tissues of the plant. […] Furthermore, in the absence of the heterologous D-amino acid oxidase being co-expressed in the floral tissues, the plastocyanin/PAT gene combination provides essentially complete reproductive tolerance with no significant loss of yield despite the PAT expression level being low or non-existent in many of the critical floral tissues when expressed under control of this promoter region. […]

D-amino acid oxidase = test: Control experiments: oxidation of pure L and pure D form of phosphinothricin by D-amino acid oxidase; format: biochemical, Rhodotorula gracilis; settings: oxygen electrode
Description: Approximately 7 g wet weight of cells is washed in water. The cells are resuspended in an equal volume of 50 mM/Mops/KOH buffer at pH 7.0 containing 2 mM EDTA, 2 mM DTT and 0.01 mM FAD. Cells are evenly suspended using a glass homogeniser and then disrupted using a one shot head in the Constant Systems (BudBrooke Rd, Warwick U.K.) Basic Z cell disrupter at 13500 psi. The crude extract is kept cold (−4° C.) centrifuged at 30,000 gav for 1 h and the pellet discarded. Some of the extract protein is run out on an SDS PAGE gel stained with Coomassie Blue and, through side by side comparison with similarly prepared extracts of cells containing only ‘empty’ pET vector it is estimated that 2-50% of the total soluble protein in the extract is D-amino acid oxidase. Some of the extract protein is exchanged into 50 mM Mops/KOH buffer at pH 7.0 containing 0.01 mM FAD. This is diluted with the same buffer in a standard oxygen electrode cell (calibrated at 25° C. between zero and a saturated concentration of oxygen). Optionally, the D-amino acid oxidase is further purified using ion-exchange, phenyl sepharose, fractional ammonium sulphate precipitation and gel filtration. […] Final amounts of protein in the cell vary up to 5 mg depending on the level of activity being measured. Rates of oxygen consumption (after substraction of any drift in the bases line) are measured.

wheat = test: Reproductive tolerance of wheat containing PAT gene under barley plastocyanin promoter; format: in vivo; settings: wheat with PAT under barley plastocyanin promoter; rates of at least 2 kg/ha
Excerpt: The current invention provides a method of overcoming the problem of enabling the use of a cheap commercial herbicide, DL phosphinothricin, as both weed control and hybridising agent in the production of hybrid cereals and which method, furthermore, provides resultant hybrid cereals or rice in which DL phosphinothricin (or L-phosphinothricin) can be safely used for weed control without substantial loss of yield. As a yet further benefit, selfed seed from the F1 generation which may later arise as volunteers in subsequent crops will be easier to manage since they, themselves, will generally be sterile if sprayed with controlling amounts of DL phosphinothricin. The same holds for the progeny of pollen outcrossing from the F1 plants to weeds (e.g red rice) or other cereals. The current invention provides genes and enzymes that convert a non-phytotoxic component, D-phosphinothricin, of a commercial herbicide formulation DL phosphinothricin, into the active L form. The PAT gene which converts L-phosphinothricin to N-acetyl L-phosphinothricin is known already and is used commercially to provide tolerance to DL phosphinothricin in crops. […]

Tobacco plants = test: Conditional male sterility of transgenic tobacco expressing mutant D-amino acid oxidase in male floral tissue; format: in vivo; settings: rates between 250 g/ha and 5 kg/ha; TAP1 or TA29-DAMOX plus plastocyanin-PAT tobacco
Description: Tobacco plant material is transformed, via Agrobacterium, with vector and transgenic plants are regenerated in a similar manner to that described in the previous example. The plants produced are self-fertile but are conditionally male sterile. Seeds of the T1 generation are planted out into soil. Once plantlets have grown to a sufficient size they are tested by PCR for the presence of transgene. PCR positive plants are transferred to the greenhouse. These plants are fully fertile in the absence of exogenously applied proherbicide. A subset of these putatively conditionally sterile T1 plants, or, alternatively plantlets of T0 ‘events’ (direct regenerants from transformation) are treated with D-phosphinothricin or D-aspartate or D-glutamate in various amounts and at varying growth stages. Where To plants are treated they are vegetatively cloned so that untreated siblings of the events are set aside for seed production. […] For example these amino acids are pure D enantiomers or, alternatively, are DL racemates. For example, they are applied as a foliar spray, prior to or during the early stages of flower formation, at rates usually between 0.25 and 20 kg/ha. Amino acids which may crystallise out of solution on the leaves following foliar application may be redissolved and remobilised for leaf uptake by further applications of water as a spray mist. […]

[2] = rates between 250 g/ha and 5 kg/ha, stig1-DAMOX plus plastocyanin-PAT tobacco

SMILES	seed production after treatment [1]	pollen production after treatment [1]	oxidation of pure enantiomer of phosphinothricin (D-amino acid oxidase)	further results
N[C@H](CC(=O)O)C(=O)O [D-aspartate]	relatively little or no seed	near normal levels of viable pollen		
N[C@H](CCC(=O)O)C(=O)O [D-glutamate]	relatively little or no seed	near normal levels of viable pollen		
CP(=O)(O)CC[C@@H](N)C(=O)O [D-phosphinothricin]	relatively little or no seed	near normal levels of viable pollen	up to twice the rate that the DL racemate is	
CP(=O)(O)CCC(N)C(=O)O (stereo not drawn) [DL phosphinothricin]				reproductive tolerance to the herbicide ([1]; plastocyanin promoter/PAT gene, rates in excess of 2 kg/ha): substantially complete reproductive tolerance; female fertility of treated plants [1, 2]: rendered conditionally female sterile; visible damage of treated plants [1, 2]: not visibly damaged; reproductive tolerance to application (wheat): substantially reproductively tolerant; male fertility of treated plants (Tobacco plants): rendered conditionally male sterile; visible damage of treated plants (Tobacco plants): not visibly damaged
CP(=O)(O)CC[C@H](N)C(=O)O [pure L-form, L-phosphinothricin]			not oxidised at detectable levels	
